Measurements taken from patent US20230391881A1, “COMPOSITIONS AND METHODS FOR OVERCOMING DR5-INDUCED IMMUNE EVASION BY SOLID TUMORS” (University of Virginia Patent Foundation, priority 2020, published 2023).

Columns and labels:
UCD52 TNBC PDX tumors = assay: PD-L1 IHC of KMTR2 treated UCD52 TNBC PDX tumors; assay type: in vivo, mouse; details: KMTR2 50 μg, 4 doses; NSG mice
DR5 = DR5 knockout (DR5-KO) versus DR5-WT TNBC cells: viability, PD-L1, S5a, ubiquitin; assay type: cell-based, human; details: for overall ubiquitin signal in lysates: DR5 sensitive versus DR5-KO cells (FIG. 2P)
Procedure: In Vitro Cell Viability Assays. Cell viability following Apo2L, lexatumumab, KMTR2, tigatuzumab, AMG-655, MD5-1, avelu-MD5, etc. treatments as indicated in the Figures either alone in combination with inhibitors (ROCK1, ERK, caspase inhibitors, etc.) or in combination with an anti-Fc reagent (For tigatuzumab, AMG-655, MD5-1, etc.) were determined using the ALAMARBLUE™ cell viability assays and MTT cell proliferation assays as per the manufacturer's protocols (ThermoFisher Scientific). Briefly, cells were treated with increasing concentration of various antibodies as indicated along with relevant positive and negative control antibodies for 6 hours, 24 hours, or 48 hours as indicated. For each cell killing assay the figures show the representative profiles from n=2-4 with different cultured confluency. Whenever used for immunoblotting, following antibodies treatment caspase-3 processing in tumor cells was monitored using selective antibodies that recognize cleaved human caspase-3 or total caspase-3 (Catalog Nos. 9661 and 9668; Cell Signaling Technology, Danvers, Massachusetts, United States of America). TRAIL-R2 receptor in oligomerization was determined using immunoblotting assays (Cell Signaling Technology Rabbit mAb, Catalog No. 8074). Cell viability was additionally examined by flow cytometry based apoptotic detection methods using 7-aminoactinomycin D (7-ADD) exclusion from live cells.
Western Blotting. Cells were cultured overnight in tissue culture-treated 6-well plates prior to treatment. After antibody treatment for 48 hours or another indicated time, cells were rinsed with PBS and then lysed with RIPA buffer supplemented with protease inhibitor cocktail (ThermoFisher Scientific). Centrifugation at 14000 rpm for 30 minutes cleared lysates and protein was quantified by PIERCE™ BCA Protein Assay Kit (ThermoFisher Scientific). Western blotting was performed using the Bio-Rad SDS-PAGE Gel system. Briefly, 30 μg of protein was resolved on 10% Bis-Tris gels and then transferred onto PVDF membrane. Membranes were blocked for one hour at room temperature in TBS+0.1% Tween (TBST) with 5% non-fat dry milk. Membranes were probed overnight at 4° C. with primary antibodies. Membranes were washed three times in TBST and then incubated with anti-rabbit or anti-mouse secondary antibodies (1/10,000 dilution, coupled to peroxidase) for 1 hour at room temperature. Membranes were then washed three times with TBST and immunocomplexes were detected with SUPERSIGNAL™ West Pico Chemiluminescent Substrate (ThermoFisher Scientific). […]
Flow cytometry. The cell surface expression of PD-L1, CD47, huDR5, muDR5, CD8, CD4, CD25 etc. was analyzed by flow cytometry. […] The data was analyzed by FCS Express (De Novo Software, Los Angeles, California, United States of America) and FlowJo. […]

MDA-MB-436 cells = assay: Flow cytometry of surface PD-L1 on tumor cells treated with DR5 agonist antibodies (FIG. 20B); assay type: cell-based, human
Procedure: FIGS. 20A-20C. (FIG. 20A) 3 biological replicates of total PD-L1 and GAPDH from triple negative breast cancer cell (MDAMB-436) and ovarian cell (OVCAR-3) lysates treated with lexatumumab for 6 hours. (FIG. 20B) Raw mean fluorescent intensity (MFI) and % positive PD-L1 counts from the cells treated with indicated DR5 agonist antibodies. MFI values are shown on the top of solid color bars. There are multiple instances (shown on the top) where despite having lower % positive PD-L1 population, MFI values were higher after indicated DR5 agonist treatments. As an example, in MDA-MB-436 cells treated with tigatuzumab and lexatumumab, lexatumumab treated cells had higher % positive PD-L1 population (9.32 vs 11.97), however MFI was higher in tigatuzumab treated population (107.54 vs 45.87). (FIG. 20C) KMTR2 treated (50 μg, 4 doses) UCD52 TNBC PDX tumors were stained for PD-L1 using immunohistochemistry (IHC). 3 additional representative images are shown. Also see FIG. 1L.
(§1) Flow cytometry. The cell surface expression of PD-L1, CD47, huDR5, muDR5, CD8, CD4, CD25 etc. was analyzed by flow cytometry. Overnight grown tumors were trypsinized and suspended in FACS buffer (PBS containing 2% FBS). Single cell suspensions were then incubated with primary DR4/DR5 antibodies for 1 hour at 4° C. with gentle mixing. Following wash with FACS buffer, the cells were then incubated with fluorescently labeled anti-Rabbit antibody for 1 hour. Cells were washed and flow cytometry was performed using a BD FACSCALIBUR™ flow cytometer. The data was analyzed by FCS Express (De Novo Software, Los Angeles, California, United States of America) and FlowJo.
PD-L1 surface expression analysis of tumor derived cells. The cell surface expression of PD-L1 from tumor-derived cell was analyzed by flow cytometry. Isolated cells were suspended in FACS buffer (PBS containing 1% FBS). The single cell suspension was then incubated with primary PD-L1 antibodies (1:400 dilution) for 1 hour at 4° C. with gentle mixing. […] Following 3 times wash with FACS buffer, the cells were then incubated with fluorescently labeled (alexa 488) anti-Rabbit secondary antibody for 1 hour. Cells were then washed 3-4 times with FACS buffer and flow cytometry was performed using BD FACSCALIBUR™. The data was analyzed by FCS Express (De Novo Software) and FlowJo software.

[1] = system: chi-G4S-DR5 stable 4T1 tumors; assay: Surface PD-L1 flow cytometry of cells recovered from Chi-G4S-DR5 stable 4T1 tumors; assay type: in vivo, mouse; details: 4 doses; flow cytometry of recovered tumors (FIGS. 5G, 23)
Text: Mechanical dissociation of tumors to obtain single-cell suspensions. Viable single cells from tumor tissues were isolated as described in Leelatian et al, 2017. Briefly, after indicated antibody treatments (4-6 doses) mice were euthanized and tumors were harvested using sterile scissors and forceps. After excision of tumor, they were minced into small pieces in sterile RPMI-1640 media using two single-edged razor blades. Small tumor pieces were passed through a 70 µm cell strainer in sterile RPMI-1640 media. A rubber plunger and syringe were used to mesh the dissociated cells through the cell strainer and media containing dissociated cells was collected onto a sterile labeled conical tube. Dissociated tumor cells were subjected to flow cytometry (FACS) analysis for PD-L1, DR5, N-cadherin, FOLR1, CD47 etc. surface expression as described under flow cytometry protocol.
PD-L1 surface expression analysis of tumor derived cells. The cell surface expression of PD-L1 from tumor-derived cell was analyzed by flow cytometry. Isolated cells were suspended in FACS buffer (PBS containing 1% FBS). […] The data was analyzed by FCS Express (De Novo Software) and FlowJo software.
Chimeric DR5 cloning and Human DR5 agonist testing studies in Balb/c animals. […] Tumors were monitored as described herein above. […]

PD-L1 = assay: Western blotting / flow cytometry of PD-L1 and regulators in tumor cells; assay type: cell-based, human; details: ovarian and TNBC tumor cells
Procedure: Western Blotting. Cells were cultured overnight in tissue culture-treated 6-well plates prior to treatment. After antibody treatment for 48 hours or another indicated time, cells were rinsed with PBS and then lysed with RIPA buffer supplemented with protease inhibitor cocktail (ThermoFisher Scientific). Centrifugation at 14000 rpm for 30 minutes cleared lysates and protein was quantified by PIERCE™ BCA Protein Assay Kit (ThermoFisher Scientific). Western blotting was performed using the Bio-Rad SDS-PAGE Gel system. Briefly, 30 μg of protein was resolved on 10% Bis-Tris gels and then transferred onto PVDF membrane. Membranes were blocked for one hour at room temperature in TBS+0.1% Tween (TBST) with 5% non-fat dry milk. Membranes were probed overnight at 4° C. with primary antibodies. Membranes were washed three times in TBST and then incubated with anti-rabbit or anti-mouse secondary antibodies (1/10,000 dilution, coupled to peroxidase) for 1 hour at room temperature. Membranes were then washed three times with TBST and immunocomplexes were detected with SUPERSIGNAL™ West Pico Chemiluminescent Substrate (ThermoFisher Scientific). Images were taken using a Bio-Rad Gel Doc Imager system.
as §1

[2] = system: DR5-KO (MDA-MB-231) cells; assay: ApoEV isolation and PD-L1 transfer to DR5-KO cells; assay type: cell-based, human; details: ApoEVs from treated DR5-WT cells
Procedure: FIG. 12. TNF-α stabilized PD-L1 is not shuttled to ApoEVs. ApoEVs were isolated from DR5-WT MDA-MB-436 and OVCAR-3 cells after treatment with IgG1, TNF-α and lexatumumab. Isolated ApoEVs were incubated on to DR5-KO (MDA-MB-231) cells. After 24 hours surface PD-L1 of DR5-KO cells was analyze by flow cytometry. Top panel show secondary antibody control, IgG1 treatment control and basal level PD-L1 levels on MDA-MB-231 DR5 KO cells.
ApoEV isolation. 4×10^6 cells were seeded onto 3×150 mm dishes in a total volume of 45 ml of DMEM supplemented with 10% exosome-free FBS and grown for 12 hours. Media of each plate was changed with serum-free medium and incubate the cells at 37° C. for 6-12 hours, with or without various antibody treatments. For all ApoEV studies, the tissue culture media was spun at 8000×g for 15 minutes. The pellet was discarded and the supernatants (SN) were passed through 0.22 um filter. ApoEVs were isolated by the ultracentrifugation method. Collected tissue culture media was spun at 5,000×g for 10 minutes to remove contaminating cellular particles, and the resulting supernatant was spun at 80,000×g for 4 hours at 4° C. to pellet ApoEVs. ApoEV pellets were resuspended in 500 μl of serum-free medium and were used for either cellular treatments, dot blots assays and immunoblotting assays.

Sequence of DR5 (O14763 56-184 limits assumed): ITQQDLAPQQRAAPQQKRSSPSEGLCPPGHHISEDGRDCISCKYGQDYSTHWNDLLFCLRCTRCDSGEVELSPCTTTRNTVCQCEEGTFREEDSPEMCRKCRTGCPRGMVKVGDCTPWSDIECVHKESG

## KMTR2: Monospecific Antibody, Human DR5 activator; VL and VH SEQ ID NOs: 7 and 8
UCD52 TNBC PDX tumors
  PD-L1 stabilization by IHC: PD-L1 stabilization was also confirmed
DR5
  overall ubiquitin signal in lysates: increased only in DR5 sensitive cell lysates

## lexatumumab: Monospecific Antibody, Human DR5 activator; VL and VH SEQ ID NOs: 1 and 2
MDA-MB-436 cells; MDA-MB-436 cells treated with DR5 agonist antibody (FIG. 20B)
  PD-L1 mean fluorescent intensity (MFI): 45.87
MDA-MB-436 cells; MDA-MB-436 cells treated with DR5 agonist antibody, raw flow cytometry counts (FIG. 20B)
  % positive PD-L1 population: 11.97%
[1]
  PD-L1 on cell surface of tumor cells: higher overall PD-L1 on cell surface
DR5
  overall ubiquitin signal in lysates: increased only in DR5 sensitive cell lysates

## TNF-α
PD-L1
  PD-L1 and CSN5 stabilization in lysates: stabilized both PD-L1 and CSN5
DR5; DR5-KO compared to DR5-WT cells
  PD-L1 stabilization / surface mobilization in DR5-KO lines: remained unchanged
DR5; MDA-MB-436 WT and DR5-KO cells
  S5a/PSMD4 levels: stabilized PD-L1 without affecting S5a levels
[2]
  PD-L1 in ApoEVs / shuttling of PD-L1 via ApoEVs: did not shuttle significant amount of PD-L1 via ApoEVs
